Experimental data reported in patent publication US20180353460A1, “METHODS OF TREATING UROLOGICAL DISORDERS USING SARMs” (priority 2014, published 2018).
Several values for one entry are separate records, joined by “and”; a condition that tells them apart may be missing. Equal entries are not always repeated.

Tests used:
[1] = system: postmenopausal women with SUI; test: Proof of concept clinical study: quality of life questionnaires (FSFI, UDI-6, IIQ-7, MESA, PGI-I, PGI-S); type: in vivo, human
Excerpt: Secondary Objectives: • To describe the effect of 12 weeks of treatment of Compound IX on the number of voids/day as assessed by the 3 days voiding diary. […] See Tables 2 (individual subject data) and Tables 4-6 (mean pad weight data for sites 1, 2, and 3, respectively), and FIG. 17 for mean and median reductions in pad weights from baseline to week 12 (across all sites). • To describe the effect of 12 weeks of treatment of Compound IX on SUI as assessed by the Urethral Pressure Profile (UPP). The UPP assessment was removed from the protocol because it is invasive and not standard of care. […] See summary data for all subjects across the 3 sites reported in Table 7 and FIGS. 13A and 13B. • Described is the effect of 12 weeks of treatment of Compound IX on subject reported impression of stress urinary incontinence severity as assessed by the Patient Global Impression of Severity Scale (PGI-S). See summary data for all subjects across the 3 sites reported in FIG. 12A. • Described is the effect of 12 weeks of treatment of Compound IX on subject reported impression of improvement as assessed by the Patient Global Impression of Improvement Scale (PGI-I). See summary data for all subjects across the 3 sites reported in FIG. 12B. • Described is the effect of 12 weeks of treatment of Compound IX on subject reported urogenital distress as assessed by the Urinary Distress Inventory Questionnaire (UDI-6). See summary data for all subjects across of 3 sites reported in Table 7 and FIG. 12C. • Described is the effect of 12 weeks of treatment of Compound IX on subject reported impact of urinary incontinence on daily life as assessed by the Incontinence Impact Questionnaire (IIQ-7). See summary data for all subjects across the 3 sites reported in Table 7 and FIG. 12D. • Described is the effect of 12 weeks of treatment of Compound IX on subject reported sexual function as indicated on the completion of the Female Sexual Function Index Questionnaire (FSFI). See summary data for all subjects across the 3 sites reported in Table 7 and FIG. 15. • Described is the effect of 12 weeks of treatment of Compound IX on pelvic floor muscles as measured by MRI. See FIG. 11 wherein the pelvic MRI for one representative subject on trial is reported at baseline and at 12 weeks, FIG. 16 wherein the pelvic MRI's for three representative subjects on trial are reported at baseline and at 12 weeks, and Example 19 and Table 13 which provide individual measurements of levator ani thickness, inner and outer diameter of the urethra, and endometrial thickness, and mean changes in the same from baseline to week 12.
The data were collected from 18 patients at 12 weeks. Data collection/analysis for additional secondary endpoints are ongoing. Women reported improved quality of life measurements in each of the five instruments collected in the study, including the Patient Global Impression of Improvement (PGI-I) and Female Sexual Function Index (FSFI). FIG. 15 provides the FSFI overall scores from baseline to 16 weeks.
The QOL measurements are described in greater detail above and are well-known and validated measures.

[2] = system: postmenopausal women with SUI; test: Proof of concept clinical study: safety; type: in vivo, human; settings: 3 mg/day p.o., 12 weeks
Method: (§1) Described is the safety profile of Compound IX 3 mg PO daily in subjects with SUI. See Table 8 which is historical data from other clinical trials establishing the safety profile of Compound IX in human subjects. See also the lack of increase in endometrial thickness in Example 19.
(§2) For the PGI-S measure, 12 patients reported symptoms as “moderate” or “severe” at baseline; whereas only 3 patients reported “moderate” symptoms and no patients reported “severe” at 12 weeks (FIG. 12A).

human subjects = test: Safety profile from other clinical trials (treatment related adverse events); type: in vivo
Method: as §1, §2
Mean stress leaks decreased by 81 percent from baseline over 12 weeks (5.17 leaks/day at baseline to 1.0 leaks/day at week 12), and the reductions in daily stress leaks following completion of treatment have been sustained as subjects are being followed for up to 7 months post-treatment to assess the durability of treatment effect (0.63 leaks/day at 40 weeks (7 months post-treatment) in the first nine subjects). No subject has relapsed to their baseline levels. Urge urinary incontinence was also observed in 11 subjects, and Compound IX produced a 68% reduction from baseline over 12 weeks in these patients, which was also observed to be durable for at least 7 months (N=7). […] All were consistent with AR pharmacology and previous clinical trials with Compound IX. Based on the results from this Phase 2 proof-of-concept study with Compound IX, a randomized, placebo-controlled Phase 2 clinical trial to evaluate the change in frequency of daily stress urinary incontinence episodes following 12 weeks of treatment was initiated. The trial will evaluate the safety and efficacy of Compound IX (1 mg and 3 mg) compared with placebo in postmenopausal women with SUI.

Structure (SMILES): C[C@](O)(COc1ccc(C#N)cc1)C(=O)Nc1ccc(C#N)c(C(F)(F)F)c1 [Compound IX, (S)—N-(4-Cyano-3-(trifluoromethyl)phenyl)-3-(4-cyanophenoxy)-2-hydroxy-2-methylpropanamide]
- patients reporting moderate symptoms on PGI-S ([1]; 12 weeks, 12 patients moderate or severe at baseline, none severe at 12 weeks): 3 patients
- MESA Urge median score at 12 weeks ([1]; 18 patients, baseline 56): 22
- MESA Stress median score at 12 weeks ([1]; 18 patients, baseline 79.5): 44.5
- UDI-6 median score at 12 weeks ([1]; scale range 0-100, baseline 45.83): 31.25
- IIQ-7 median score at 12 weeks ([1]; scale range 0-100, baseline 50.00): 11.90
- FSFI median score at 12 weeks ([1]; scale range 2-36, baseline 15.90): 28.05 and 28.00 and 28.20
- patients with improved PGI-I scores ([1]; week 12): 17 of 18
- SHBG [2]: Reductions in SHBG
- endometrial stripe thickness [2]: No changes in endometrial stripe thickness
- liver enzymes [2]: Mild transient elevations in liver enzymes
- serious adverse events [2]: no serious adverse events reported
- total cholesterol, LDL, HDL and triglycerides [2]: reductions in total cholesterol, LDL, HDL and triglycerides
- Abdominal Pain, figure in parentheses (percent of subjects) (human subjects; N = 896): (0.8)
- Abdominal Pain, number of subjects (human subjects; N = 896): 7
- Alanine Aminotransferase Increased, figure in parentheses (percent of subjects) (human subjects; N = 896): (2.1)
- Alanine Aminotransferase Increased, number of subjects (human subjects; N = 896): 19
- Any Treatment Related Adverse Event, figure in parentheses (percent of subjects) (human subjects; N = 896): (24.4)
- Any Treatment Related Adverse Event, number of subjects (human subjects; N = 896): 219
- Back pain, figure in parentheses (percent of subjects) (human subjects; N = 896): (1.5)
- Back pain, number of subjects (human subjects; N = 896): 13
- Constipation, figure in parentheses (percent of subjects) (human subjects; N = 896): (1.3)
- Constipation, number of subjects (human subjects; N = 896): 12
- Diarrhea, figure in parentheses (percent of subjects) (human subjects; N = 896): (2.1)
- Diarrhea, number of subjects (human subjects; N = 896): 19
- Dizziness Postural, figure in parentheses (percent of subjects) (human subjects; N = 896): (0.6)
- Dizziness Postural, number of subjects (human subjects; N = 896): 5
- Dizziness, figure in parentheses (percent of subjects) (human subjects; N = 896): (2.0)
- Dizziness, number of subjects (human subjects; N = 896): 18
- Dyspnea, figure in parentheses (percent of subjects) (human subjects; N = 896): (0.9)
- Dyspnea, number of subjects (human subjects; N = 896): 8
- Fatigue, figure in parentheses (percent of subjects) (human subjects; N = 896): (0.9)
- Fatigue, number of subjects (human subjects; N = 896): 8
- Headache, figure in parentheses (percent of subjects) (human subjects; N = 896): (5.7)
- Headache, number of subjects (human subjects; N = 896): 51
- Hot Flush, figure in parentheses (percent of subjects) (human subjects; N = 896): (0.7)
- Hot Flush, number of subjects (human subjects; N = 896): 6
- Hyperhidrosis, figure in parentheses (percent of subjects) (human subjects; N = 896): (1.0)
- Hyperhidrosis, number of subjects (human subjects; N = 896): 9
- Insomnia, figure in parentheses (percent of subjects) (human subjects; N = 896): (0.6)
- Insomnia, number of subjects (human subjects; N = 896): 5
- Muscle Spasms, figure in parentheses (percent of subjects) (human subjects; N = 896): (0.7)
- Muscle Spasms, number of subjects (human subjects; N = 896): 6
- Myalgia, figure in parentheses (percent of subjects) (human subjects; N = 896): (0.7)
- Myalgia, number of subjects (human subjects; N = 896): 6
- Nausea, figure in parentheses (percent of subjects) (human subjects; N = 896): (3.0)
- Nausea, number of subjects (human subjects; N = 896): 27
- Pain in Extremity, figure in parentheses (percent of subjects) (human subjects; N = 896): (1.2)
- Pain in Extremity, number of subjects (human subjects; N = 896): 11
- Pruritus, figure in parentheses (percent of subjects) (human subjects; N = 896): (1.0)
- Pruritus, number of subjects (human subjects; N = 896): 9
- Rash, figure in parentheses (percent of subjects) (human subjects; N = 896): (0.6)
- Rash, number of subjects (human subjects; N = 896): 5
- Somnolence, figure in parentheses (percent of subjects) (human subjects; N = 896): (1.0)
- Somnolence, number of subjects (human subjects; N = 896): 9
- Vomiting, figure in parentheses (percent of subjects) (human subjects; N = 896): (1.3)
- Vomiting, number of subjects (human subjects; N = 896): 12
- general safety and tolerability (human subjects; about 1,200 individuals, doses 0.1 mg to 100 mg): generally safe and well tolerated
